Tested on: Chlorella minutissima
Assay: Algal growth by percent transmittance at 750 nm
Type: cell-based
Experimental: Two species of Chlorella were examined for growth—Chlorella sorokiniana a freshwater species and Chlorella minutissima a marine species. […] Growth was measured on day 0, 1, 2, 3, 4, 5, 6, 7, 8, 9 and 10. […] The following media were purchased from UTEX Culture Collection of Algae: Enriched Salt Water Medium and Volvox Dextrose Medium.
The algae were grown for 48 hours in the appropriate medium. The initial suspension was enumerated for each alga and is referred to as the starting inoculums. Chlorella sorokiniana was at 381 million cells per milliliter and Chlorella minutissima was at 19 million cells per milliliter. One milliliter of the algal solution was placed into 9 mLs of medium and mixed by vortexing. […] The tube of algae and MSM were incubated at room temperature with exposure to sunlight. […] Each dilution of MSM for each organism was set up in and analyzed in triplicate for each time interval measured. The samples were measured by percent transmittance on a UV/VIS spectrophotometer at wavelength 750 nm. The medium stock was tested for percent transmittance background levels at every time interval were measured. The lower percent transmittance indicated a higher growth factor.

Methylsulfonylmethane [MSM]
Growth, percent transmittance at 750 nm (MSM 0.5%, Sample Day 0): 93.5%
Growth, percent transmittance at 750 nm (MSM 0.5%, Sample Day 1): 70.1%
Growth, percent transmittance at 750 nm (MSM 0.5%, Sample Day 2): 45.4%
Growth, percent transmittance at 750 nm (MSM 0.5%, Sample Day 3): 32.1%
Growth, percent transmittance at 750 nm (MSM 0.5%, Sample Day 4): 27.6%
Growth, percent transmittance at 750 nm (MSM 0.5%, Sample Day 5): 26.6%
Growth, percent transmittance at 750 nm (MSM 0.5%, Sample Day 6): 25.1%
Growth, percent transmittance at 750 nm (MSM 0.5%, Sample Day 7): 23.6%
Growth, percent transmittance at 750 nm (MSM 0.5%, Sample Day 8): 22.8%
Growth, percent transmittance at 750 nm (MSM 0.5%, Sample Day 9): 20.4%
Growth, percent transmittance at 750 nm (MSM 0.5%, Sample Day 10): 18.9%
Growth, percent transmittance at 750 nm (MSM 1.0%, Sample Day 0): 91.1%
Growth, percent transmittance at 750 nm (MSM 1.0%, Sample Day 1): 80.5%
Growth, percent transmittance at 750 nm (MSM 1.0%, Sample Day 2): 40.0%
Growth, percent transmittance at 750 nm (MSM 1.0%, Sample Day 3): 31.0%
Growth, percent transmittance at 750 nm (MSM 1.0%, Sample Day 4): 27.9%
Growth, percent transmittance at 750 nm (MSM 1.0%, Sample Day 5): 26.5%
Growth, percent transmittance at 750 nm (MSM 1.0%, Sample Day 6): 25.4%
Growth, percent transmittance at 750 nm (MSM 1.0%, Sample Day 7): 24.4%
Growth, percent transmittance at 750 nm (MSM 1.0%, Sample Day 8): 23.7%
Growth, percent transmittance at 750 nm (MSM 1.0%, Sample Day 9): 21.0%
Growth, percent transmittance at 750 nm (MSM 1.0%, Sample Day 10): 19.4%
Growth, percent transmittance at 750 nm (MSM 5.0%, Sample Day 0): 68.9%
Growth, percent transmittance at 750 nm (MSM 5.0%, Sample Day 1): 87.4%
Growth, percent transmittance at 750 nm (MSM 5.0%, Sample Day 2): 76.5%
Growth, percent transmittance at 750 nm (MSM 5.0%, Sample Day 3): 62.0%
Growth, percent transmittance at 750 nm (MSM 5.0%, Sample Day 4): 52.9%
Growth, percent transmittance at 750 nm (MSM 5.0%, Sample Day 5): 52.2%
Growth, percent transmittance at 750 nm (MSM 5.0%, Sample Day 6): 50.7%
Growth, percent transmittance at 750 nm (MSM 5.0%, Sample Day 7): 51.0%
Growth, percent transmittance at 750 nm (MSM 5.0%, Sample Day 8): 51.9%
Growth, percent transmittance at 750 nm (MSM 5.0%, Sample Day 9): 47.1%
Growth, percent transmittance at 750 nm (MSM 5.0%, Sample Day 10): 44.1%
Growth, percent transmittance at 750 nm (MSM 10.0%, Sample Day 0): 49.6%
Growth, percent transmittance at 750 nm (MSM 10.0%, Sample Day 1): 49.2%
Growth, percent transmittance at 750 nm (MSM 10.0%, Sample Day 2): 50.8%
Growth, percent transmittance at 750 nm (MSM 10.0%, Sample Day 3): 51.9%
Growth, percent transmittance at 750 nm (MSM 10.0%, Sample Day 4): 52.0%
Growth, percent transmittance at 750 nm (MSM 10.0%, Sample Day 5): 51.9%
Growth, percent transmittance at 750 nm (MSM 10.0%, Sample Day 6): 54.9%
Growth, percent transmittance at 750 nm (MSM 10.0%, Sample Day 7): 56.1%
Growth, percent transmittance at 750 nm (MSM 10.0%, Sample Day 8): 58.6%
Growth, percent transmittance at 750 nm (MSM 10.0%, Sample Day 9): 41.4%
Growth, percent transmittance at 750 nm (MSM 10.0%, Sample Day 10): 36.7%
Growth, percent transmittance at 750 nm (MSM 20.0%, Sample Day 0): 30.0%
Growth, percent transmittance at 750 nm (MSM 20.0%, Sample Day 1): 33.8%
Growth, percent transmittance at 750 nm (MSM 20.0%, Sample Day 2): 51.1%
Growth, percent transmittance at 750 nm (MSM 20.0%, Sample Day 3): 54.8%
Growth, percent transmittance at 750 nm (MSM 20.0%, Sample Day 4): 57.3%
Growth, percent transmittance at 750 nm (MSM 20.0%, Sample Day 5): 57.5%
Growth, percent transmittance at 750 nm (MSM 20.0%, Sample Day 6): 57.4%
Growth, percent transmittance at 750 nm (MSM 20.0%, Sample Day 7): 57.1%
Growth, percent transmittance at 750 nm (MSM 20.0%, Sample Day 8): 55.8%
Growth, percent transmittance at 750 nm (MSM 20.0%, Sample Day 9): 45.1%
Growth, percent transmittance at 750 nm (MSM 20.0%, Sample Day 10): 30.2%
Growth, percent transmittance at 750 nm (MSM […], Sample Day 0): 82.8%
Growth, percent transmittance at 750 nm (MSM […], Sample Day 1): 75.1%
Growth, percent transmittance at 750 nm (MSM […], Sample Day 2): 59.5%
Growth, percent transmittance at 750 nm (MSM […], Sample Day 3): 45.4%
Growth, percent transmittance at 750 nm (MSM […], Sample Day 4): 33.6%
Growth, percent transmittance at 750 nm (MSM […], Sample Day 5): 32.4%
Growth, percent transmittance at 750 nm (MSM […], Sample Day 6): 30.0%
Growth, percent transmittance at 750 nm (MSM […], Sample Day 7): 28.6%
Growth, percent transmittance at 750 nm (MSM […], Sample Day 8): 27.7%
Growth, percent transmittance at 750 nm (MSM […], Sample Day 9): 23.3%
Growth, percent transmittance at 750 nm (MSM […], Sample Day 10): 21.1%

— patent US20110105623A1 (Biogenic Innovations, LLC, priority 2009, published 2011)
